Laboratory results: patent publication EP1202975B1, “SUBSTITUTED POLYCYCLIC ARYL AND HETEROARYL PYRAZINONES USEFUL FOR SELECTIVE INHIBITION OF THE COAGULATION CASCADE” (Pharmacia Corporation, priority 1999, dated 2000)
Like-named read-outs stand apart in the source and are kept apart here.

What was measured:
[1] = molecular target: T1, TF-VIIa (Homo sapiens, UniProt P08709); experiment: TF-VIIa Assay; type: biochemical
T1 construct: 2nM recombinant human factor VIIa; purchased American Diagnostica, Greenwich CT; host or cells: soluble TF made in house in E. coli
T1 sequence (P08709 213-466 limits assumed): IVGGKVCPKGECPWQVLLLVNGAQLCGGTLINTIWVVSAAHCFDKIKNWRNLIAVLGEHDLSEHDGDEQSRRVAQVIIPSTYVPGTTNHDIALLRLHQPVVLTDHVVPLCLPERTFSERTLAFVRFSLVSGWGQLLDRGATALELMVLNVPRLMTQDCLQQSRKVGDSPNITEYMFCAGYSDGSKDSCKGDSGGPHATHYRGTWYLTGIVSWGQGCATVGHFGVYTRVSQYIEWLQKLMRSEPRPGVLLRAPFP
T1 sequence (P08709 61-212 limits assumed): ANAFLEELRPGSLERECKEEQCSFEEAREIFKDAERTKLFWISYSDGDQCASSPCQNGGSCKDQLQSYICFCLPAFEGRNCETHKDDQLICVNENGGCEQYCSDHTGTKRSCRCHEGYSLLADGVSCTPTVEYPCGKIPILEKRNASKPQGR
T1 sequence (P13726 33-251 partner limits assumed): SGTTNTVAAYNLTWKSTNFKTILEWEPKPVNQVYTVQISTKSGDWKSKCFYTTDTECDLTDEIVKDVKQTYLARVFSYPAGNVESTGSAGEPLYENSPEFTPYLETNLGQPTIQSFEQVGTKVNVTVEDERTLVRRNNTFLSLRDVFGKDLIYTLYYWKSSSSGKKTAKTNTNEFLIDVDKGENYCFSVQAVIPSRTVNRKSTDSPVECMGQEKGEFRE

[2] = molecular target: Human factor Xa (Homo sapiens, UniProt P00742); experiment: Xa Assay; settings: for IC50 or % Inhibition Factor Xa (30 µM): % inhibition at 30 µM
Chain of Human factor Xa (P00742 235-488 limits assumed): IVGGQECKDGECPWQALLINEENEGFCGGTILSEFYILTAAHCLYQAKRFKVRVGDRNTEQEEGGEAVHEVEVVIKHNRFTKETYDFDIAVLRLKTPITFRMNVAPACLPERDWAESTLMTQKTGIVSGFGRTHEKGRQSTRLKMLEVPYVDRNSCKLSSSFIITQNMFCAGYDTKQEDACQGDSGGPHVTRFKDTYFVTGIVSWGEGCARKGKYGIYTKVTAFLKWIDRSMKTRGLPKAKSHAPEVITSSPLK
Chain of Human factor Xa (P00742 41-179 limits assumed): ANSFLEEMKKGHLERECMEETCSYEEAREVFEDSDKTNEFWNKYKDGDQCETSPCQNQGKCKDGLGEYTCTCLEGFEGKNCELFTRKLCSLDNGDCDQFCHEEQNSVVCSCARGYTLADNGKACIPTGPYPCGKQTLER

[3] = cells given as a plain number (IC50); read-out: IC50 or % Inhibition TF-VIIa (30 µM)
[4] = read-out: IC50 or % Inhibition Factor Xa (30 µM), cells given as a plain number (IC50)
[5] = read-out: IC50 or % Inhibition TF-VIIa (30 µM); cells given as a plain number (IC50)

SMILES	IC50 [1, 3]	IC50 [2, 4]	IC50 [2]	IC50 [1, 5]	IC50 or % Inhibition Factor Xa (30 µM) [2]
N=C(N)c1ccc(CNC(=O)Cn2c(-c3ccccc3Cl)c(Cl)nc(NC3CCC3)c2=O)cc1 [1515-16]	–	> 30 µM	–	8.8 µM	–
N=C(N)c1ccc(CNC(=O)Cn2c(-c3ccccc3)c(Cl)nc(NCc3cccc(F)c3)c2=O)cc1 [1507-42]	–	> 30 µM	–	11.6 µM	–
CCC(CC)Nc1nc(Cl)c(-c2cccc(N)c2)n(CC(=O)NCc2ccc(C(=N)N)cc2)c1=O [1526-11]	0.05 µM	> 30 µM	–	–	–
CCCNc1nc(Cl)c(-c2cccc(N)c2)n(CC(=O)NCc2ccc(C(=N)N)cc2)c1=O [1526-13]	–	> 30 µM	–	0.06 µM	–
N=C(N)c1ccc(CNC(=O)Cn2c(-c3cccc(Br)c3)c(Cl)nc(NCc3ccccc3)c2=O)cc1 [1515-10]	–	> 30 µM	–	5.7 µM	–
N=C(N)c1ccc(CNC(=O)Cn2c(-c3cccc(Br)c3)c(Cl)nc(NCCc3ccccc3)c2=O)cc1 [1515-34]	–	> 30 µM	–	4.4 µM	–
CC[C@H](C)Nc1nc(Cl)c(-c2cccc(N)c2)n(CC(=O)NCc2ccc(C(=N)N)cc2)c1=O [1526-09]	–	> 30 µM	–	0.03 µM	–
N=C(N)c1ccc(CNC(=O)Cn2c(-c3ccccc3F)c(Cl)nc(NCc3ccccc3)c2=O)cc1 [1515-11]	–	> 30 µM	–	4.3 µM	–
COc1ccccc1-c1c(Cl)nc(NCc2ccccc2)c(=O)n1CC(=O)NCc1ccc(C(=N)N)cc1 [1515-02]	–	> 30 µM	–	3.8 µM	–

The remaining lines, values ahead:

IC50 [1, 3]	IC50 [2, 4]	IC50 [2]	IC50 [1, 5]	IC50 or % Inhibition Factor Xa (30 µM) [2]	SMILES
0.14 µM	> 30 µM	–	–	–	COCCNc1nc(Cl)c(-c2cccc(N)c2)n(CC(=O)NCc2ccc(C(=N)N)cc2)c1=O [1526-25]
> 100 µM	–	> 100 µM	–	–	N=C(N)NCCCCCNC(=O)Cn1c(-c2ccccc2)cnc(NCCc2ccccc2)c1=O [Example 13]
91 µM	–	> 100 µM	–	–	N=C(N)NCCCNC(=O)Cn1c(-c2ccccc2)cnc(NCCc2ccccc2)c1=O [Example 11]
4.13 µM	–	–	–	20%	N=C(N)c1ccc(CNC(=O)Cn2c(-c3ccccc3)cnc(NC(=O)Nc3cc(Cl)cc(Cl)c3)c2=O)cc1 [Example 108]
0.04 µM	> 30 µM	–	–	–	Cc1c(N)cccc1-c1c(Cl)nc(NC(C)C)c(=O)n1CC(=O)NCc1ccc(C(=N)N)cc1 [compound 97]
2.52 µM	> 30 µM	–	–	–	N=C(N)c1ccc(CNC(=O)Cn2c(-c3cccc([N+](=O)[O-])c3)c(Cl)nc(NCCc3ccccc3)c2=O)cc1 [compound 77]
0.07 µM	> 30 µM	–	–	–	N=C(N)c1ccc(CNC(=O)Cn2c(-c3cccc(N)c3)c(Cl)nc(NCCc3cccc(Cl)c3)c2=O)cc1 [compound 87]
20 µM	–	–	–	32%@30	N=C(N)c1ccc(CNC(=O)Cn2c(-c3ccc4ccccc4c3)c(Cl)nc(NCCc3ccccc3)c2=O)cc1 [compound 82]
0.75 µM	> 30 µM	–	–	–	Cc1cccc(-c2cnc(NCCc3ccccc3)c(=O)n2CC(=O)NCc2ccc(C(=N)N)cc2)c1 [compound 83]
